# According to patent publication US10253002B2, “Compounds and methods of treating infections” (Neoculi Pty Ltd., priority 2013, dated 2019):
# Values joined by “and” are separate entries in the source; they are usually repeats but may differ in a detail not shown here. Identical values can stand only once. Like-named read-outs stand apart in the source and are kept apart here.
# Legend:
# [1] = system: non-MRSA S. aureus MK01 and KC01; experiment: MBC (CLSI methodology), Example 8; format: cell-based, Staphylococcus aureus
# [2] = Release from Formulation B, Franz diffusion cells; format: physicochemical; settings: absolute ethanol receptor, 32±1° C., up to 24 hours
# Description: Franz diffusion cells were utilized to quantify the release rate of NCL 812 and NCL099 from its topical formulations. Five milliliters of absolute ethanol, which was chosen as the desired release medium, was loaded into the receptor chamber. Temperature of the receptor fluid was kept constant, at 32±1° C. using a water jacket. Acetyl cellulose membranes, with pore size of 0.45 μm (Pall Corporation) was selected and placed between donor and receptor chamber. Followed by that, a number of test samples (Formulation B) was loaded into the donor chamber. One milliliter of receptor fluid was collected at regular time intervals of 0.25, 0.50, 0.75, 1, 2, 3, 4, 5, 6, 7, 8 and 24 hours through the sampling port. One milliliter of fresh absolute ethanol was immediately returned to the receptor chamber. UV-HPLC was utilized to analyse the content of the receptor fluids attained.
# [3] = system: Staphylococcus pseudintermedius isolates (MSSP and MRSP); experiment: MIC (CLSI), Example 6; format: cell-based; settings: for MIC: Staphylococcus pseudintermedius
# Description: Anti-staphylococcal compounds were then tested against all 23 isolates and minimum inhibitory concentrations (MIC) were determined according to standard protocols. After the MICs were determined, the minimum bactericidal concentrations were performed to determine if these compounds are bacteriostatic or bacteriocidal.
# VRE = experiment: Broth microdilution MIC, Example 7 (NCL812 and analogues); format: cell-based, Enterococcus spp.; settings: Enterococcus, VRE
# Method in brief: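 Values are MICs in μg/ml from broth microdilution per CLSI, with growth scored against a drug-free well.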
# [4] = 23 Staphylococcus pseudintermedius isolates
compound,measurement,setting,value
"N=C(N/N=C/c1ccc(Cl)cc1)N/N=C/c1ccc(Cl)cc1 [NCL812, 1,3-bis[(E)-(4-chlorophenyl)methyleneamino]guanidine]","NCL812 MBC test, growth on Sheep Blood Agar","[1]; S. aureus (KC01), 2 μg/ml",+
same,"NCL812 MBC test, growth on Sheep Blood Agar","[1]; S. aureus (KC01), 4 μg/ml",+ and 0
same,"NCL812 MBC test, growth on Sheep Blood Agar","[1]; S. aureus (KC01), 8 μg/ml",+ and 0
same,"NCL812 MBC test, growth on Sheep Blood Agar","[1]; S. aureus (KC01), 16 μg/ml",0
same,"NCL812 MBC test, growth on Sheep Blood Agar","[1]; S. aureus (KC01), 32 μg/ml",0
same,"NCL812 MBC test, growth on Sheep Blood Agar","[1]; S. aureus (KC01), 64 μg/ml",0
same,"NCL812 MBC test, growth on Sheep Blood Agar","[1]; S. aureus (KC01), […]",0
same,"NCL812 MBC test, growth on Sheep Blood Agar","[1]; S. aureus (MK01), 2 μg/ml",0
same,Number of Bacteria Growing after 24 hours per ml of sample,"[1]; S. aureus (MK01), 2 μg/ml",5 CFU/ml
same,"NCL812 MBC test, growth on Sheep Blood Agar","[1]; S. aureus (MK01), 4 μg/ml",0
same,"NCL812 MBC test, growth on Sheep Blood Agar","[1]; S. aureus (MK01), 8 μg/ml",0
same,"NCL812 MBC test, growth on Sheep Blood Agar","[1]; S. aureus (MK01), 16 μg/ml",0 (N) and 0
same,"NCL812 MBC test, growth on Sheep Blood Agar","[1]; S. aureus (MK01), 32 μg/ml",0 (N) and 0
same,"NCL812 MBC test, growth on Sheep Blood Agar","[1]; S. aureus (MK01), 64 μg/ml",0 (N) and 0
same,MBC test outcome,"[1]; S. aureus MK01 and KC01, no growth, or growth only at 2 μg/ml",bactericidal
same,release profile from Formulation B,[2],acceptable release profile
same,MIC50,[3]; [4],2 µg/mL
same,MIC range,[3]; [4],1 to 4 µg/mL
same,MIC range,[3]; Staphylococcus pseudintermedius isolates,1 to 4 µg/mL
same,MIC,"[3]; 23 Staphylococcus pseudintermedius isolates, read-out: MIC mode",2 µg/mL
same,MIC,"[3]; Staphylococcus pseudintermedius isolates, read-out: MIC mode",2 µg/mL
same,MIC,"[3]; isolate S2P2, read-out: MIC",2 µg/mL
same,MIC,"[3]; isolate S3P3, read-out: MIC",2 µg/mL
same,MIC,"[3]; isolate S4P4, read-out: MIC",1 µg/mL
same,MIC,"[3]; isolate S5P5, read-out: MIC",2 µg/mL
same,MIC,"[3]; isolate S6P6, read-out: MIC",2 µg/mL
same,MIC,"[3]; isolate S7P7, read-out: MIC",2 µg/mL
same,MIC,"[3]; isolate S8P8, read-out: MIC",2 µg/mL
same,MIC,"[3]; isolate S9P9, read-out: MIC",2 µg/mL
same,MIC,"[3]; isolate S10P10, read-out: MIC",2 µg/mL
same,MIC,"[3]; isolate S12P12, read-out: MIC",2 µg/mL
same,MIC,"[3]; isolate S13P13, read-out: MIC",2 µg/mL
same,MIC,"[3]; isolate S14P14, read-out: MIC",2 µg/mL
same,MIC,"[3]; isolate S16P16, read-out: MIC",2 µg/mL
same,MIC,"[3]; isolate S17P17, read-out: MIC",2 µg/mL
same,MIC,"[3]; isolate S21P21, read-out: MIC",2 µg/mL
same,MIC,"[3]; isolate S23P23, read-out: MIC",2 µg/mL
same,MIC,"VRE; 24 h, read-out: MIC (μg/ml) at 24 hours, VRE 1, isolate VRE 1, 24 hours, 1st and 2nd replicate rows",2 µg/mL
same,MIC,"VRE; 24 h, read-out: MIC (μg/ml) at 24 hours, VRE 2, isolate VRE 2, 24 hours, 1st and 2nd replicate rows",2 µg/mL
same,MIC,"VRE; VRE 002 [H12c], Phase I, 1st, read-out: MIC",4 µg/mL
same,MIC,"VRE; VRE 002 [H12c], Phase I, 2nd, read-out: MIC",4 µg/mL
same,MIC,"VRE; VRE 002 [H12c], Phase II, 1st, read-out: MIC",2 µg/mL
same,MIC,"VRE; VRE 002 [H12c], Phase II, 2nd, read-out: MIC",2 µg/mL
same,MIC,"VRE; VRE 003 [H14t], Phase I, 1st, read-out: MIC",2 µg/mL
same,MIC,"VRE; VRE 003 [H14t], Phase I, 2nd, read-out: MIC",2 µg/mL
same,MIC,"VRE; VRE 003 [H14t], Phase II, 1st, read-out: MIC",2 µg/mL
same,MIC,"VRE; VRE 003 [H14t], Phase II, 2nd, read-out: MIC",2 µg/mL
same,MIC,"VRE; VRE 004 [H16c], Phase I, 1st, read-out: MIC",4 µg/mL
same,MIC,"VRE; VRE 004 [H16c], Phase I, 2nd, read-out: MIC",4 µg/mL
